These results are taken from patent US10568992B2, “Peptides for supporting endothelial progenitor cell rolling and capture and endothelialization of biomaterials” (Auburn University, priority 2015, dated 2020).

For assay [1], the system named is endothelial colony forming cells (ECFCs). Briefly: ECFC rolling on peptide-grafted PEG hydrogels under shear (parallel plate flow chamber). Also on record: ECFC rolling velocity: unit not given here. The following applies: for ECFC rolling velocity: 0.7 μmol/mL PEG-peptide grafted hydrogel; for ECFC rolling velocity / ECFC rolling velocities / rolling velocities of ECFCs: mean±SD (n=3); for ECFC rolling velocities: FIG. 15A; for support of ECFC rolling (velocity below rolling cutoff, 40% of average fluid velocity): shear rates 20-120 s^−1; for rolling velocities of ECFCs: FIG. 13A. The class given is cell-based. The method, then:
(§1) Umbilical cord blood ECFCs were used in this study. To create the peptide-grafted PEG surfaces, PEG-DA was first photopolymerized to form a hydrogel base. Peptides were conjugated to acryloyl-PEG-SVA to produced the PEG-peptides, and 0.7 μmol/mL of each PEG-peptide was grafted onto the surface of the PEG hydrogel base. Shear experiments were performed to examine ECFC rolling and adhesion on the hydrogel surfaces. Using a Glycotech parallel plate flow chamber, the ECFC cell suspension was sheared over the hydrogels at shear rates of 20 s^−1, 40 s^−1, 80 s^−1, and 120 s^−1. Cell rolling events were recorded at 70 fps using a high speed camera. Cell tracking was performed using ImageJ and Matlab to determine rolling velocities. Finally ECFC retention on the RGDSQ ID NO:3)-grafted PEG hydrogels was quantified under superphysiological shear stress.
To form the PEG-peptide grafting solution, the acryloyl-PEG-peptide was first dissolved in sterile PBS at the desired concentration (ranging from 0.7 mM to 5.6 mM) and the photoinitiator was added as described above. After each PEGDA hydrogel was photocrosslinked, the top plate of the mold was removed. The hydrogels were rinsed with sterile PBS and briefly dried with a stream of nitrogen to remove excess PBS on the surface of the hydrogel. The mold's 0.5 mm PDMS spacers were replaced with 0.7 mm PDMS spacers and a clean glass slide was placed on top. Then the PEG-peptide grafting solution was injected between the hydrogel and the new piece of glass and photocrosslinked to the top of the PEGDA hydrogel under the UV lamp for 7 min. PEG-peptide grafted hydrogels were then rinsed and swollen in sterile PBS for experiments.
To identify whether a cell is rolling, the upper velocity cutoff was determined by flowing ECFCs across the surface of control PEG hydrogels at different shear rates. Using video recordings, ECFC rotation on the focal plane of PEG hydrogels was observed. […] Therefore, based on these experiments, 40% of average fluid flow velocity was used as the cutoff velocity for cell rolling as is shown in FIG. 12.

Assay [2] shares this test system. Briefly: Adhesion of ECFCs on peptide-grafted PEG hydrogels (static). The class given is cell-based. The following applies: for ECFC adhesion and spreading: after 24 hours; for ECFC monolayer formation and cobble stone morphology: peptide-grafted hydrogels. An excerpt: ECFC adhesion on (A) CRRETAWAC (SEQ ID NO:1)-(B) PRb ([…]), —(C) P11 (SEQ ID NO: 11)-grafted PEG hydrogels.
Adhesion of ECFCs on CRRETAWAC (SEQ ID NO:1)-, PRb (SEQ ID NO:18)-, P11 (SEQ ID NO: 11)-grafted hydrogels was first accessed. […] On P11-grafted hydrogels, ECFCs aggregated to form adherent cell clumps. […] Without the ability to support cell spreading and the formation of monolayer, P11 alone could not support ECFC endothelialization which is critical for healing damaged and diseased blood vessels.

Assay [3] has as its target αvβ3 integrin (Homo sapiens, UniProt P05106+P06756). The following applies: among 12 HXXXHK hexapeptides; cited from earlier work.
The test system of assay [4] is endothelial colony forming cells (ECFCs). Kind of assay: ECFC capture on peptide-grafted PEG hydrogels under shear. The class given is cell-based. The conditions noted are these: 20 s^−1; for ECFCs captured (captured cells normalized to total cells interacting with hydrogel surface): 2 min recordings, total 0.7 μmol/mL peptide grafted (combinations 0.35/0.35 μmol/mL), mean±SD (n=3); for ECFC capture events (in words): low shear rate. The method, then:
as §1
Cell capture events were consistently observed on CRRETAWAC (SEQ ID NO:1)- and PRb (SEQ ID NO:18)-grafted hydrogels at 20 s^−1. Number of captured cells were counted and normalized to the total number of cells interacted with each hydrogel surface. During each of the 2 min recordings, 3.74%±1.0% of ECFCs were captured on CRRETAWAC (SEQ ID NO:1)-grafted hydrogels and 1.14%±0.2% of ECFCs were captured on PRb-grafted hydrogels FIG. 9. Since both of these novel peptides are specific for the integrin α5β1, the result of this study strongly supports that α5β1 is responsible for cell capture.
To further evaluate the potential use of CRRETAWAC (SEQ ID NO:1) and PRb in the ECFC capture for endothelialization, ECFC rolling on hydrogels that were grafted with combinations of CRRETAWAC (SEQ ID NO:1) or PRb (SEQ ID NO:18) with REDV (SEQ ID NO:2) was assessed. In order to maintain consistent grafting of peptides, a final concentrations of 0.7 μmol/mL of equal molar mixtures of acryloyl-PEG-peptides precursors were grafted onto the surface of PEG hydrogels.

For assay [5], the target named is integrin α5β1 (Homo sapiens, UniProt P05556+P08648). The following applies: among the non-RGD containing peptides of the library; cited from earlier work.

Bridges are numbered along the chain shown (N, C = ends). Where no end group is shown, it is not given here.

Chain of αvβ3 integrin (P06756 31-889 limits assumed): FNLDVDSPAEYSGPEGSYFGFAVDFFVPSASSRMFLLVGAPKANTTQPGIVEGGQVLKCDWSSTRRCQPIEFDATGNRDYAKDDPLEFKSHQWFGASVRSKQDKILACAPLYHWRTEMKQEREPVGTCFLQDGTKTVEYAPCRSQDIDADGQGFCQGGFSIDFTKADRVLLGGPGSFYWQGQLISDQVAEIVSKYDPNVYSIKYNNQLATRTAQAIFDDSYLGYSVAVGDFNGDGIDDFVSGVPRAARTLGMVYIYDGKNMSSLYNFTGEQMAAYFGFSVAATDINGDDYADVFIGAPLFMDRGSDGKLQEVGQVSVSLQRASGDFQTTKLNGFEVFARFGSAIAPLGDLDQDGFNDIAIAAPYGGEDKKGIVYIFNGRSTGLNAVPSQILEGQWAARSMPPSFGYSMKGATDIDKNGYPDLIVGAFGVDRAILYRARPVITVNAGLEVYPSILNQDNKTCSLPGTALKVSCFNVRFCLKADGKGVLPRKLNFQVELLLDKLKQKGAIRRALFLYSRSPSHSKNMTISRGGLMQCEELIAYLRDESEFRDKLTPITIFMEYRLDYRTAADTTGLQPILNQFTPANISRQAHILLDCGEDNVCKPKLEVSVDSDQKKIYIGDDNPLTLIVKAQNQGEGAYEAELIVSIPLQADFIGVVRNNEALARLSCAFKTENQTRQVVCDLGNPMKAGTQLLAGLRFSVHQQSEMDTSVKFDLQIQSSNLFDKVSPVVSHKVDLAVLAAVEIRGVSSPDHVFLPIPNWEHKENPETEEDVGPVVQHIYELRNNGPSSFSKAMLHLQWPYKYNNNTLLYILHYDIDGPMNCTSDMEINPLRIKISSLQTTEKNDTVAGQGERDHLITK
Chain of αvβ3 integrin (P06756 891-1048 partner limits assumed): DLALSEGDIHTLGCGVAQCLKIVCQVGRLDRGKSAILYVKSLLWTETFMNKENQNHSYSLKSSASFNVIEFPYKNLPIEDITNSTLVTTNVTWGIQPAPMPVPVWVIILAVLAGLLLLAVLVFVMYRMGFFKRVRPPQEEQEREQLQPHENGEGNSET
Chain of αvβ3 integrin (P05106 27-788): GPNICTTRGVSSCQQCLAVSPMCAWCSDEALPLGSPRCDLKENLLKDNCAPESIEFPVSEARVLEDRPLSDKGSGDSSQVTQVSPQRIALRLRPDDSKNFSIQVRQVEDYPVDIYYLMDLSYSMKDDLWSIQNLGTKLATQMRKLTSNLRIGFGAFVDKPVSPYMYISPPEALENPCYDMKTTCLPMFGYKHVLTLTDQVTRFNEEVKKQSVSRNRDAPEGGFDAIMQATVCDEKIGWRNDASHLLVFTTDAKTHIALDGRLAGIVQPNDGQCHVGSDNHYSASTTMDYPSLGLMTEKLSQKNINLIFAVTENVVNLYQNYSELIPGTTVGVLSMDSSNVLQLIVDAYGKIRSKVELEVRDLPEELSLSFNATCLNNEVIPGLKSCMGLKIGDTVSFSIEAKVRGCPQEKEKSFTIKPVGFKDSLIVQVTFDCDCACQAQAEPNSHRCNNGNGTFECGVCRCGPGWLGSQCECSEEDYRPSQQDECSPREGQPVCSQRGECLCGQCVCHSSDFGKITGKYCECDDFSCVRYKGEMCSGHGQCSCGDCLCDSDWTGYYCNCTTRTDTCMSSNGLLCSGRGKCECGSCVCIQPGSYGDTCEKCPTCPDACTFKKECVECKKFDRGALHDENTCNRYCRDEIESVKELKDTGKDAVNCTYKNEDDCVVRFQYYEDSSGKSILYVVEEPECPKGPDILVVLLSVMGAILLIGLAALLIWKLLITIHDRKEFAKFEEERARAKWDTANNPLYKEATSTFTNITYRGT
Chain of integrin α5β1 (P08648 42-894 limits assumed): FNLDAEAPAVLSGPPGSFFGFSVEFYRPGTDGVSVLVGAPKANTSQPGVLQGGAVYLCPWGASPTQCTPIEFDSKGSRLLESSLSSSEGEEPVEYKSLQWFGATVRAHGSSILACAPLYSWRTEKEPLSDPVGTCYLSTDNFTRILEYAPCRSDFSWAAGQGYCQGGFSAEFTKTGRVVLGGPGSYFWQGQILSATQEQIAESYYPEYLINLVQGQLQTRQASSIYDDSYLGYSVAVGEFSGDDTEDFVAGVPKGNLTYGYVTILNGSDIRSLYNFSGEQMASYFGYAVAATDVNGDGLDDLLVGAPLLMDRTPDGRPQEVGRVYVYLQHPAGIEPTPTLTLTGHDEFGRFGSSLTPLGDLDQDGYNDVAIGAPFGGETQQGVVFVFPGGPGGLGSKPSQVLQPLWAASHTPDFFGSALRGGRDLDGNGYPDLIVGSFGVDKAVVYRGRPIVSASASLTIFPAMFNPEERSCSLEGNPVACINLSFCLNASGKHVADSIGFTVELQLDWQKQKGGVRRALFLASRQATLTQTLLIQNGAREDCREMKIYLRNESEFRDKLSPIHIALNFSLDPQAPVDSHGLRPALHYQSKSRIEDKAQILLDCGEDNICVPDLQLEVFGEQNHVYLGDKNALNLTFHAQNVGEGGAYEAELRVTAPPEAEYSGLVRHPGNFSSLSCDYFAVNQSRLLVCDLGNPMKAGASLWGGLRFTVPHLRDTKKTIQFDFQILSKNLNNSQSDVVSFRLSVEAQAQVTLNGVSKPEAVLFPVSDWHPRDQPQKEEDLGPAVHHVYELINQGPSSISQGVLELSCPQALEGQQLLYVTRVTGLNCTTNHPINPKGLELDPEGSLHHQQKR
Chain of integrin α5β1 (P08648 895-1049 partner limits assumed): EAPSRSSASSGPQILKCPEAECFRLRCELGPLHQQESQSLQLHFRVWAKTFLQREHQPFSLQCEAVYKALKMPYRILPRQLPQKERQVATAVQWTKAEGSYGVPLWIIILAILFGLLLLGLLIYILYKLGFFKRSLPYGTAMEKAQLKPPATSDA
Chain of integrin α5β1 (P05556 21-798): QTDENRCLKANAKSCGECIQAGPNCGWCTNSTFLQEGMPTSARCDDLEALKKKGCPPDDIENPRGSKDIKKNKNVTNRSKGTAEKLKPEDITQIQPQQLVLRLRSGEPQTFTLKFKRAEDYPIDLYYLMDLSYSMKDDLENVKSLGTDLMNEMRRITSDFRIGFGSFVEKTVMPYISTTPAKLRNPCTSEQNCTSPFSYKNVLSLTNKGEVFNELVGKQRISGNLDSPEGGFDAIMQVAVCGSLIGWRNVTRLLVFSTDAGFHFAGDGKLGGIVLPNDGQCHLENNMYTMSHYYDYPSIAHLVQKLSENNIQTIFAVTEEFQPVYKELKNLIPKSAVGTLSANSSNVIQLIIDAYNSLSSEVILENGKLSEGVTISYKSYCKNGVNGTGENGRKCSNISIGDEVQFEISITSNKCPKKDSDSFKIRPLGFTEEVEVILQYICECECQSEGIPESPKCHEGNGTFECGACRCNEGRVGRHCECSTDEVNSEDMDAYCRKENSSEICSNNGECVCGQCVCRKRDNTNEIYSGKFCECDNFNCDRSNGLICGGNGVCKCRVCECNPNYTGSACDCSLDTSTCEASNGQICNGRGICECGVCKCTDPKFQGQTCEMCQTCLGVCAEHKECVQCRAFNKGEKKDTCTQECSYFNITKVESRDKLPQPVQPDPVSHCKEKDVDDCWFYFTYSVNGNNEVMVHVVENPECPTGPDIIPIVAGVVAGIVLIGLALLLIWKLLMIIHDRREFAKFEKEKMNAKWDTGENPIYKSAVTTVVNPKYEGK

On to “HSDVHK [Peptide P11, synthesized as HSDVHKG]”, for which the ECFC rolling velocity in assay [1] (shear rate 20 1/s) is reported as 127.5; in assay [1] (shear rate 40 1/s), 251.0 ± 41.2; in assay [1] (shear rate 80 1/s), 508.0 ± 86.5; in assay [1] (shear rate 120 1/s), 787.6 ± 102.1. Also, the “ECFC adhesion and spreading” value in assay [2] is “only able to support ECFC adhesion, but not spreading”. In assay [2], the “ECFC monolayer formation and cobble stone morphology” value is listed as “not”. In addition, in assay [3], the “competition with fluorescently labeled VN for αvβ3” value is recorded as “most competitive for αvβ3”.
For the substance YIGSRG (also: PEG conjugate), the ECFC rolling velocities in assay [1] (20 s^−1) is given as 102±9 μm s^−1; in assay [1] (40 s^−1), 223±22 μm s^−1; in assay [1] (80 s^−1), 484±12 μm s^−1; in assay [1] (120 s^−1) it was 740±10 μm s^−1. The ECFC rolling velocity in assay [1] (shear rate 20 1/s) came to 103.2; in assay [1] (shear rate 40 1/s), 223.2 ± 38.0; in assay [1] (shear rate 80 1/s), 487.6 ± 72.5; in assay [1] (shear rate 120 1/s), 737.0 ± 107.9. Moreover, the “support of ECFC rolling (velocity below rolling cutoff, 40% of average fluid velocity)” value in assay [1] is reported as “supported ECFC rolling”. Also, the “ECFC monolayer formation and cobble stone morphology” value in assay [2] was “not”.
As to RGES (also: PEG conjugate), the “support of ECFC rolling (velocity below rolling cutoff, 40% of average fluid velocity)” value in assay [1] was “did not support ECFC rolling”.
Consider “CRRETAWAC (disulfide 1-9 (inferred); also: grafted on PEG hydrogel via acryloyl-PEG)”, for which the ECFC rolling velocity in assay [1] (shear rate 20 1/s) is 131.6; in assay [1] (shear rate 40 1/s), 278.4 ± 28.6; in assay [1] (shear rate 80 1/s), 550.6 ± 64.1; in assay [1] (shear rate 120 1/s), 828.4 ± 82.7. For the same substance, in assay [4], the “ECFCs captured (captured cells normalized to total cells interacting with hydrogel surface)” value is given as 3.74%. Further, the “ECFC adhesion and spreading” value in assay [2] is “supported ECFC adhesion and spreading”. Also, in assay [2], the “ECFC monolayer formation and cobble stone morphology” value is “able to form monolayer and maintain cobble stone morphology”. Also, the “affinity to α5β1” value in assay [5] is recorded as “highest affinity”.
With “RGDS (also: PEG conjugate) [ubiquitous cell adhesion peptide]”, the “rolling velocities of ECFCs” value in assay [1] (20 s^−1) stood at 103±3 μm/s; in assay [1] (40 s^−1), 223±14 μm/s; in assay [1] (80 s^−1), 469±38 μm/s; in assay [1] (120 s^−1) it was 741±28 μm/s. The ECFC rolling velocity in assay [1] (shear rate 20 1/s) is 102.2; in assay [1] (shear rate 40 1/s) it was 218.7 ± 42.4; in assay [1] (shear rate 80 1/s), 455.8 ± 86.7; in assay [1] (shear rate 120 1/s), 739.7 ± 121.9. Besides, the “support of ECFC rolling (velocity below rolling cutoff, 40% of average fluid velocity)” value in assay [1] is on record as “supported ECFC rolling at all shear rates”. Moreover, the “ECFC capture events (in words)” value in assay [4] was “Some ECFC capture events were observed”. Further, the “ECFC monolayer formation and cobble stone morphology” value in assay [2] is “able to form monolayer and maintain cobble stone morphology”.
In the case of PHSRNSGSGSGSGSGRGDSG [PRb], the ECFC rolling velocity in assay [1] (shear rate 20 1/s) came to 110.3; in assay [1] (shear rate 40 1/s), 235.0 ± 36.1; in assay [1] (shear rate 80 1/s), 485.7 ± 67.5; in assay [1] (shear rate 120 1/s), 735.1 ± 102.6. For the same substance, the “ECFCs captured (captured cells normalized to total cells interacting with hydrogel surface)” value in assay [4] was 1.14%. Also, in assay [2], the “ECFC adhesion and spreading” value is “supported ECFC adhesion and spreading”. The “ECFC monolayer formation and cobble stone morphology” value in assay [2] is “able to form monolayer and maintain cobble stone morphology”.
Regarding REDV (also: PEG conjugate), the ECFC rolling velocities worked out at 79±4 μm s^−1 in assay [1] (20 s^−1), 181±6 μm s^−1 in assay [1] (40 s^−1), 357±6 μm s^−1 in assay [1] (80 s^−1) and 560±15 μm s^−1 in assay [1] (120 s^−1). For the same substance, the ECFC rolling velocity in assay [1] (shear rate 20 1/s) is reported as 78.6; in assay [1] (shear rate 40 1/s) it was 183.3 ± 43.4; in assay [1] (shear rate 80 1/s), 353.8 ± 82.0; in assay [1] (shear rate 120 1/s) it was 564.3 ± 177.0. For the same substance, the “support of ECFC rolling (velocity below rolling cutoff, 40% of average fluid velocity)” value in assay [1] is “supported ECFC rolling”. The “ECFC capture events (in words)” value in assay [4] was “does not support capture even at low shear rates”. Further, the “ECFC monolayer formation and cobble stone morphology” value in assay [2] is listed as “not”.
